Experimental data reported in PubChem BioAssay AID179 (DTP/NCI, 2004).
Activity calls are given as the source filed them.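 Rule for the calls: active = compounds giving half or more protection of infected cells from virus-caused growth loss, again on retest; inactive = the rest.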 Where a SMILES comes first, the peptide text is derived from it.

Test system: CEM cells HIV-1 protection, formazan growth assay
Assay: NCI AIDS Antiviral Assay
Conditions: for IC50: measured here: growth of uninfected CEM cells
Method in brief: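 Protection of CEM cells against HIV-1 was scored from cell growth (soluble formazan) across five concentrations, with parallel uninfected cells. Lack of protection may reflect toxicity.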

Compound	EC50	IC50	outcome
COc1cccc(C(=O)C2C(=O)N(C)CCc3ccccc32)c1OC (stereo not given)	> 148 µM	> 148 µM	–
OC(CCN1CCOCC1)c1ccc(Sc2ccccc2)cc1 (stereo not given)	> 200 µM	36.3 µM	–
Nc1ccc(N=Nc2ccc(-c3ccc(N=Nc4c(S(=O)(=O)O)cc5cc(S(=O)(=O)O)c(N=Nc6ccc([N+](=O)[O-])cc6)c(N)c5c4O)cc3)cc2)c2cc(S(=O)(=O)O)ccc12	> 19.5 µM	> 19.5 µM	–
N#Cc1c2n(c3c(=O)n(-c4ccccc4)c(=S)[nH]c13)CCCCC2	> 151 µM	> 151 µM	–
C/C(=N\NS(=O)(=O)c1ccc(C)cc1)C(CN1CCOCC1)C(c1ccccc1)c1c(O)c2ccccc2oc1=O (stereo not given)	> 42.7 µM	19.1 µM	–
O=C(Nc1ccc(Cl)cc1)NS(=O)(=O)c1coc2ccccc2c1=O	> 200 µM	93.3 µM	–
Cc1ccc(/C=C2\CN(C)CC3C2=NN(c2ccccc2)C3c2ccc(C)cc2)cc1 (stereo not given)	> 200 µM	> 200 µM	–
COc1c2c(cc3oc(C)cc(=O)c13)OC(=N)C(C(N)=O)C2CC(=O)c1ccc(N)cc1 (stereo not given)	45.7 µM	> 100 µM	–
Oc1ccc(C2Oc3cc(OC4OCC(O)C(O)C4O)cc(O)c3CC2O)cc1O (stereo not given)	> 200 µM	> 200 µM	–
CS(=O)(=O)OCCCNCCCOS(C)(=O)=O	> 759 µM	562 µM	–
CN1CC(Br)(Br)C(=O)N(C)C1=O	> 200 µM	3.24 µM	–
O=C1c2ccccc2C(=CC=C2c3ccccc3Sc3ccccc32)c2ccccc21	> 9.12 µM	> 9.12 µM	–
CCN(CCO)C(=O)C1(c2ccccc2)CCCCC1	> 501 µM	60.3 µM	–
Cc1nc(N)c(-c2ccccc2)s1	> 135 µM	> 135 µM	–
O=C(Nc1nc2ncn(CCI)c2c(=O)[nH]1)c1ccccc1	> 63.1 µM	> 63.1 µM	–
NC(=Nc1ccccc1)N(c1ccccc1)c1nc(=S)ss1	> 200 µM	83.2 µM	–
CN(CCN(C)C(=S)NN)C(=S)NN	> 200 µM	132 µM	–
Nc1nc(CCC(=O)Nc2cccc(C(F)(F)F)c2)cc(-c2ccc3ccccc3c2)n1	> 575 µM	> 575 µM	–
CC(NC(=O)C(C)NC(=O)C(CC(N)=O)NC(=O)CN)C(=O)NC(CO)C(=O)NC(C)C(=O)NC(CCCN=C(N)N)C(N)=O (stereo not given) (H-GNAASAR-NH2; configuration not given here)	–	–	inactive
Cc1ccc(Nc2nc3c(=O)n(C)c(=O)n(C)c3nc2Nc2ccc(C)cc2)cc1	> 200 µM	2.04 µM	–
COC12OCCN(C)C1=CC(=O)C1N=NCC12 (stereo not given)	–	–	inactive

Compound	EC50	IC50	outcome
NC(N)=NS(=O)(=O)c1ccc(NCc2cccc3c(=O)c4ccc(Cl)cc4oc23)cc1	> 25.1 µM	2.19 µM	–
Cc1cc(C)nc(NS(=O)(=O)c2ccc(Nc3c4ccc(Cl)cc4nc4c(C(=O)Nc5ccc(S(=O)(=O)N=C(N)N)cc5)cccc34)cc2)n1	> 49 µM	> 49 µM	–
O=C(O)c1c2c(nc3ccccc13)-c1ccccc1C1(CCCC1)C2	> 468 µM	170 µM	–
O=C(CCN1CCCC1)CC(c1ccccc1)c1c(O)c2ccccc2oc1=O (stereo not given)	> 91.2 µM	> 91.2 µM	–
O=C1C(c2ccccc2)C2C=CC(C2)N1O (stereo not given)	> 200 µM	> 200 µM	–
C=C(C(=O)O)C1CC[C@@]2(C)CCC[C@@](C)(O)C2C1 (stereo not given in full)	> 200 µM	> 200 µM	–
COc1ccc(/C(C#N)=C/c2cccc(N)c2)cc1	> 200 µM	25.1 µM	–
CC(=O)OC1COC(N2c3ccccc3[C@@H]3CCc4c([nH]c5ccccc45)[C@@H]32)C(OC(C)=O)C1OC(C)=O (mixture of isomers)	> 155 µM	19.5 µM	–
O=C1ON=C2C3CC4CC12CC1(C3)C(=O)ON=C41	> 200 µM	> 200 µM	–
Cc1ccc2c(c1)Nc1ccccc1C(=O)N2	> 200 µM	> 200 µM	–
CC1(O)[C@@H]2O[C@@H]2C2(CCCO2)[C@@H]2O[C@@H]21 (stereo not given in full)	> 200 µM	> 200 µM	–
CC(=O)Nc1ccccc1	> 1860 µM	> 1860 µM	–
O=C(/C(C=NC(=S)c1ccncc1)=C(/O)C1=CC=CCC1)c1ccccc1	–	–	inactive
Nc1nc(SCc2ccccc2)c2ncn(CCO)c2n1	> 200 µM	191 µM	–
O=Cc1ccccc1COC(=O)c1cc(C(=O)OCc2ccccc2C=O)c(C(=O)OCc2ccccc2C=O)cc1C(=O)OCc1ccccc1C=O	> 0.759 µM	> 0.759 µM	–
CCOC(=O)C(NC(=O)c1ccccc1)(Nc1ccc(S(=O)(=O)Nc2nc(C)cc(C)n2)cc1)C(F)(F)F (stereo not given)	> 200 µM	> 200 µM	–
CCOP(=O)(CCC(O)CNc1nc(N)nc(Cl)c1N=Nc1ccc(Cl)cc1)OCC (stereo not given)	> 200 µM	6.46 µM	–
CCN(CC)/[N+]([O-])=N/OCOC	> 200 µM	> 200 µM	–
COc1ccc2cc1Oc1ccc(cc1)CC1c3cc(c(OC)cc3CCN1C)Oc1c(OC)c(OC)c(OC)c3c1[C@H](C2)N(C)CC3 (stereo not given in full)	–	–	inactive
N#C/C=C/c1cccc(C#N)c1	> 46.8 µM	> 46.8 µM	–
O=c1[nH]c(=O)n(C2CC(F)(F)C(CO)O2)cc1COCC(F)(F)F (stereo not given)	> 174 µM	> 174 µM	–
